Laboratory results from patent US6468782B1, “Methods of preserving prokaryotic cells and compositions obtained thereby” (priority 1996, dated 2002).
Where two headings read alike, the source gives them in different places.

Tests used:
E. coli = test: Intracellular trehalose production in E. coli under osmotic shock with different salts; format: cell-based
Protocol: E. coli NCIMB strain 9484 was cultured in Evans medium (pH 7.0; Table 1) containing one of a variety of agents for increasing osmotic pressure. After overnight incubation at 37° C. in initial Evans medium, a 4 ml culture of E. coli grown in Evans medium under nitrogen limitation was used to inoculate a 200 ml culture of Evans medium osmotic shock.
Intracellular trehalose concentration was measured as described below at various times after the initiation of osmotic shock.
Intracellular concentration of trehalose was determined using high pressure liquid chromatography (HPLC) as follows. Trehalose standards were prepared by first making 10 mM trehalose in 70% ethanol, followed by 10-fold serial dilution from 10 mM to 10 nM using 70% ethanol as diluent. […]
Cell samples were prepared for analysis by disrupting the cell wall by sonication (any other method such as mortar and pestle, osmotic lysis, beads can be used) coupled with the preferential solubilization of trehalose in 70% ethanol, followed by removing triglycerides by chloroform extraction. […] The pellet volume was determined by measuring the relative increase in the initial volume following resuspension of the cells. […]
Quantitation of trehalose was achieved by HPLC (Beckman Instruments), using a Dionex CarboPac PA 100 analytical column, with a Dionex ED40 pulsed amperometric electrochemical detector. […]

E. coli 9484 = test: Viable cell recovery (plate assay, CFU) of trehalose-induced E. coli Q-T4 dried with different excipients and stored at 37° C.; format: cell-based
Protocol: Viability was determined immediately after completion and at various times during storage at 37° C. using a plate assay. For the plate assay, serial 10-fold dilutions of cells were set up by using minimal medium minus a carbon source as a sterile diluent.
Thirty μl of the cell suspension from the sixth dilution tube was added to each of 3 LB (Luria-Bertuni) plates, using a sterile glass spreader to spread the culture over the entire surface of the plate. The plates were incubated overnight at 37° C., and the colonies counted.
E. coli strain 9894 was inoculated in 100 ml batch cultures of minimal medium related to M9 but with high (0.5M) salt content as described in Example 2. Cells were grown for 22 hours at 37° C. in a shaking incubator (early stationary phase). Samples of cultures were removed for trehalose determination (3×1 ml) and protein estimation by the Bradford assay (3×10 ml; Bio-Rad). Trehalose concentration was expressed as μmol (mg protein)^−1.
Two 30 ml aliquots from each flask were harvested by centrifugation at 10,000 rpm for 10 minutes. Cell pellets were resuspended in 8 ml of 25-45% sugar, 0.1% CMC (sodium carboxymethyl cellulose; Blanose 7HF; Aqualon). The suspensions were then pooled to a total volume of 16 ml with a typical cell density of 4-8×10^9 CFU/ml and 300 μl aliquots dispensed into 3 ml pharmaceutical vials.
Bacteria were dried under vacuum without freezing using the following protocol: vacuum, 30 mT; initial shelf temperature 40° C. for 16 hours, followed by ramping to 80° C. at a rate of 2.5° C./min in increments of 2° C. with a holding time of 12 minutes per increment. Foaming occurred between 60-120 minutes of initial drying.
Viability was determined immediately before and after the completion of the drying procedure and at various times during storage at 37° C. using a plate assay as described in Example 2. The residual moisture content and the glass transition temperature were also determined.

Molecule: N.N.O=S(=O)(O)O [ammonium sulfate]
- amount of intracellular trehalose concentration stimulated, relative to NaCl, CaCl2 or KCl (E. coli): about half

Molecule: OC[C@@H](O)[C@@H](O[C@@H]1O[C@H](CO)[C@H](O)[C@H](O)[C@H]1O)[C@H](O)[C@@H](O)CO [Lactitol, 4-O-β-D-galactopyranosyl-D-glucitol]
- % Viable Cell Recovery after storage at 37° C., Day 0 (E. coli 9484; E. coli, 0 day): 42%
- % Viable Cell Recovery after storage at 37° C., Week 3 (E. coli 9484; E. coli, 3 weeks): 36%
- % Viable Cell Recovery after storage at 37° C., Week 6 (E. coli 9484; E. coli, 6 weeks): 34%

Molecule: OC[C@H]1O[C@H](O[C@H]2O[C@H](CO)[C@@H](O)[C@H](O)[C@H]2O)[C@H](O)[C@@H](O)[C@@H]1O [Trehalose, α-D-glucopyranosyl-α-D-glucopyranoside]
- % Viable Cell Recovery after storage at 37° C., Week 3 (E. coli 9484; 3 weeks storage at 37° C., 25-45% sugar, 0.1% CMC): 52%
- % Viable Cell Recovery after storage at 37° C., Week 6 (E. coli 9484; 6 weeks storage at 37° C., 25-45% sugar, 0.1% CMC): 45%
- % Viable Cell Recovery after storage at 37° C., Day 0 (E. coli 9484; immediately after completion of Q-T4 drying, 25-45% sugar, 0.1% CMC): 36%

Molecule: Palatinit
- % Viable Cell Recovery after storage at 37° C., Day 0 (E. coli 9484): 49%
- % Viable Cell Recovery after storage at 37° C., Week 3 (E. coli 9484): 49%
- % Viable Cell Recovery after storage at 37° C., Week 6 (E. coli 9484): 51%
